Experimental data published in EPA's CvTdb concentration-time database.

How the values were obtained:
[1] = test system: Rat; assay: concentration in lung after dosing; settings: dosed: 2,3,7,8-Tetrachlorodibenzo-p-dioxin, oral, Female, Sprague-Dawley
[2] = test system: Rat; assay: concentration in liver after dosing; settings: 24 h; dosed: 2,3,7,8-Tetrachlorodibenzo-p-dioxin; 0.0001 mg/kg; oral; Female; Sprague-Dawley
[3] = test system: Rat; assay: concentration in liver after dosing; settings: dosed: 2,3,7,8-Tetrachlorodibenzo-p-dioxin, oral, Female, Sprague-Dawley
[4] = test system: Rat; assay: concentration in liver after dosing; settings: 24 h; dosed: 2,3,7,8-Tetrachlorodibenzo-p-dioxin; 0.0001 mg/kg; oral; Female; Sprague-Dawley; remark: listed apart in the source
[5] = test system: Rat; assay: concentration in liver after dosing; settings: 24 h; dosed: 2,3,7,8-Tetrachlorodibenzo-p-dioxin; 0.0001 mg/kg; oral; Female; Sprague-Dawley; remark: listed apart in the source
[6] = test system: Rat; assay: concentration in liver after dosing; settings: 24 h; dosed: 2,3,7,8-Tetrachlorodibenzo-p-dioxin; 0.0001 mg/kg; oral; Female; Sprague-Dawley; remark: listed apart in the source
[7] = test system: Rat; assay: concentration in liver after dosing; settings: 24 h; dosed: 2,3,7,8-Tetrachlorodibenzo-p-dioxin; 0.00005 mg/kg; oral; Female; Sprague-Dawley
[8] = test system: Rat; assay: concentration in plasma after dosing; settings: dosed: 2,3,7,8-Tetrachlorodibenzo-p-dioxin, 0.0001 mg/kg, oral, Female, Sprague-Dawley
[9] = test system: Rat; assay: concentration in adipose after dosing; settings: 1680 h; dosed: 2,3,7,8-Tetrachlorodibenzo-p-dioxin; 0.0001 mg/kg; oral; Female; Sprague-Dawley
[10] = test system: Rat; assay: concentration in adipose after dosing; settings: 1680 h; dosed: 2,3,7,8-Tetrachlorodibenzo-p-dioxin; 0.0001 mg/kg; oral; Female; Sprague-Dawley; remark: listed apart in the source
[11] = test system: Rat; assay: concentration in adipose after dosing; settings: 480 h; dosed: 2,3,7,8-Tetrachlorodibenzo-p-dioxin; 0.00005 mg/kg; oral; Female; Sprague-Dawley
[12] = test system: Rat; assay: concentration in adipose after dosing; settings: 2400 h; dosed: 2,3,7,8-Tetrachlorodibenzo-p-dioxin; 0.0001 mg/kg; oral; Female; Sprague-Dawley
[13] = test system: Rat; assay: concentration in adipose after dosing; settings: 8 h; dosed: 2,3,7,8-Tetrachlorodibenzo-p-dioxin; 0.0001 mg/kg; oral; Female; Sprague-Dawley
[14] = test system: Rat; assay: concentration in adipose after dosing; settings: 48 h; dosed: 2,3,7,8-Tetrachlorodibenzo-p-dioxin; 0.0001 mg/kg; oral; Female; Sprague-Dawley
[15] = test system: Rat; assay: concentration in adipose after dosing; settings: 960 h; dosed: 2,3,7,8-Tetrachlorodibenzo-p-dioxin; 0.00005 mg/kg; oral; Female; Sprague-Dawley
[16] = test system: Rat; assay: concentration in adipose after dosing; settings: dosed: 2,3,7,8-Tetrachlorodibenzo-p-dioxin, oral, Female, Sprague-Dawley
[17] = test system: Rat; assay: concentration in adipose after dosing; settings: 960 h; dosed: 2,3,7,8-Tetrachlorodibenzo-p-dioxin; 0.0001 mg/kg; oral; Female; Sprague-Dawley
[18] = test system: Rat; assay: concentration in adipose after dosing; settings: 480 h; dosed: 2,3,7,8-Tetrachlorodibenzo-p-dioxin; 0.0001 mg/kg; oral; Female; Sprague-Dawley
[19] = test system: Rat; assay: concentration in adipose after dosing; settings: 480 h; dosed: 2,3,7,8-Tetrachlorodibenzo-p-dioxin; 0.0001 mg/kg; oral; Female; Sprague-Dawley; remark: listed apart in the source
[20] = test system: Rat; assay: concentration in adipose after dosing; settings: 1680 h; dosed: 2,3,7,8-Tetrachlorodibenzo-p-dioxin; 0.0001 mg/kg; oral; Female; Sprague-Dawley; remark: listed apart in the source
[21] = test system: Rat; assay: concentration in adipose after dosing; settings: 960 h; dosed: 2,3,7,8-Tetrachlorodibenzo-p-dioxin; 0.0001 mg/kg; oral; Female; Sprague-Dawley; remark: listed apart in the source
[22] = test system: Rat; assay: concentration in adipose after dosing; settings: 48 h; dosed: 2,3,7,8-Tetrachlorodibenzo-p-dioxin; 0.0001 mg/kg; oral; Female; Sprague-Dawley; remark: listed apart in the source
[23] = test system: Rat; assay: concentration in adipose after dosing; settings: 960 h; dosed: 2,3,7,8-Tetrachlorodibenzo-p-dioxin; 0.0001 mg/kg; oral; Female; Sprague-Dawley; remark: listed apart in the source
[24] = test system: Rat; assay: concentration in adipose after dosing; settings: 480 h; dosed: 2,3,7,8-Tetrachlorodibenzo-p-dioxin; 0.0001 mg/kg; oral; Female; Sprague-Dawley; remark: listed apart in the source
[25] = test system: Rat; assay: concentration in adipose after dosing; settings: 48 h; dosed: 2,3,7,8-Tetrachlorodibenzo-p-dioxin; 0.0001 mg/kg; oral; Female; Sprague-Dawley; remark: listed apart in the source
[26] = test system: Rat; assay: concentration in adipose after dosing; settings: 48 h; dosed: 2,3,7,8-Tetrachlorodibenzo-p-dioxin; 0.0001 mg/kg; oral; Female; Sprague-Dawley; remark: listed apart in the source
[27] = test system: Rat; assay: concentration in adipose (perirenal) after dosing; settings: 960 h; dosed: 2,3,7,8-Tetrachlorodibenzo-p-dioxin; 0.0001 mg/kg; oral; Female; Sprague-Dawley
[28] = test system: Rat; assay: concentration in adipose (perirenal) after dosing; settings: 480 h; dosed: 2,3,7,8-Tetrachlorodibenzo-p-dioxin; 0.0001 mg/kg; oral; Female; Sprague-Dawley
[29] = test system: Rat; assay: concentration in adipose (perirenal) after dosing; settings: 480 h; dosed: 2,3,7,8-Tetrachlorodibenzo-p-dioxin; 0.0001 mg/kg; oral; Female; Sprague-Dawley; remark: listed apart in the source
[30] = test system: Rat; assay: concentration in adipose (perirenal) after dosing; settings: 1680 h; dosed: 2,3,7,8-Tetrachlorodibenzo-p-dioxin; 0.0001 mg/kg; oral; Female; Sprague-Dawley
[31] = test system: Rat; assay: concentration in adipose (perirenal) after dosing; settings: 48 h; dosed: 2,3,7,8-Tetrachlorodibenzo-p-dioxin; 0.00005 mg/kg; oral; Female; Sprague-Dawley
[32] = test system: Rat; assay: concentration in adipose (perirenal) after dosing; settings: dosed: 2,3,7,8-Tetrachlorodibenzo-p-dioxin, oral, Female, Sprague-Dawley
[33] = test system: Rat; assay: concentration in adipose (perirenal) after dosing; settings: 1680 h; dosed: 2,3,7,8-Tetrachlorodibenzo-p-dioxin; 0.0001 mg/kg; oral; Female; Sprague-Dawley; remark: listed apart in the source
[34] = test system: Rat; assay: concentration in adipose (perirenal) after dosing; settings: 48 h; dosed: 2,3,7,8-Tetrachlorodibenzo-p-dioxin; 0.0001 mg/kg; oral; Female; Sprague-Dawley
[35] = test system: Rat; assay: concentration in adipose (perirenal) after dosing; settings: 2400 h; dosed: 2,3,7,8-Tetrachlorodibenzo-p-dioxin; 0.0001 mg/kg; oral; Female; Sprague-Dawley
[36] = test system: Rat; assay: concentration in adipose (perirenal) after dosing; settings: 2400 h; dosed: 2,3,7,8-Tetrachlorodibenzo-p-dioxin; 0.0001 mg/kg; oral; Female; Sprague-Dawley; remark: listed apart in the source
[37] = test system: Rat; assay: concentration in adipose (perirenal) after dosing; settings: 960 h; dosed: 2,3,7,8-Tetrachlorodibenzo-p-dioxin; 0.0001 mg/kg; oral; Female; Sprague-Dawley; remark: listed apart in the source
[38] = test system: Rat; assay: concentration in adipose (perirenal) after dosing; settings: 960 h; dosed: 2,3,7,8-Tetrachlorodibenzo-p-dioxin; 0.0001 mg/kg; oral; Female; Sprague-Dawley; remark: listed apart in the source
[39] = test system: Rat; assay: concentration in adipose (perirenal) after dosing; settings: 48 h; dosed: 2,3,7,8-Tetrachlorodibenzo-p-dioxin; 0.00005 mg/kg; oral; Female; Sprague-Dawley; remark: listed apart in the source
[40] = test system: Rat; assay: concentration in adipose (perirenal) after dosing; settings: 1680 h; dosed: 2,3,7,8-Tetrachlorodibenzo-p-dioxin; 0.0001 mg/kg; oral; Female; Sprague-Dawley; remark: listed apart in the source
[41] = test system: Rat; assay: concentration in adipose (perirenal) after dosing; settings: 48 h; dosed: 2,3,7,8-Tetrachlorodibenzo-p-dioxin; 0.0001 mg/kg; oral; Female; Sprague-Dawley; remark: listed apart in the source
[42] = test system: Rat; assay: concentration in adipose (perirenal) after dosing; settings: 48 h; dosed: 2,3,7,8-Tetrachlorodibenzo-p-dioxin; 0.0001 mg/kg; oral; Female; Sprague-Dawley; remark: listed apart in the source
[43] = test system: Rat; assay: concentration in adipose (perirenal) after dosing; settings: 480 h; dosed: 2,3,7,8-Tetrachlorodibenzo-p-dioxin; 0.0001 mg/kg; oral; Female; Sprague-Dawley; remark: listed apart in the source
[44] = test system: Rat; assay: concentration in adipose (perirenal) after dosing; settings: 2400 h; dosed: 2,3,7,8-Tetrachlorodibenzo-p-dioxin; 0.0001 mg/kg; oral; Female; Sprague-Dawley; remark: listed apart in the source
[45] = test system: Rat; assay: concentration in adipose (perirenal) after dosing; settings: 48 h; dosed: 2,3,7,8-Tetrachlorodibenzo-p-dioxin; 0.0001 mg/kg; oral; Female; Sprague-Dawley; remark: listed apart in the source
[46] = test system: Rat; assay: concentration in adipose (perirenal) after dosing; settings: 48 h; dosed: 2,3,7,8-Tetrachlorodibenzo-p-dioxin; 0.0001 mg/kg; oral; Female; Sprague-Dawley; remark: listed apart in the source

Clc1cc2c(cc1Cl)Oc1cc(Cl)c(Cl)cc1O2 [2,3,7,8-Tetrachlorodibenzo-p-dioxin]
Settings | concentration in adipose, [16] [pg/g] | concentration in adipose, [32] [pg/g] | concentration in liver, [3] [pg/g] | concentration in lung, [1] [pg/g]
8 h, 0.00005 mg/kg | 120 | – | – | –
8 h, 0.0001 mg/kg | 218 | 135 | – | –
24 h, 0.00005 mg/kg | – | – | 472 | –
24 h, 0.0001 mg/kg | – | – | 1630 | –
48 h, 0.00005 mg/kg | – | 416 | – | –
48 h, 0.0001 mg/kg | 303 | 371 | – | –
480 h, 0.00005 mg/kg | 110 | 260 | 271 | –
480 h, 0.0001 mg/kg | 428 | 190 | 307 | –
960 h, 0.00005 mg/kg | 93 | 146 | 205 | 465
960 h, 0.0001 mg/kg | 171 | 172 | – | –
1680 h, 0.0001 mg/kg | 134 | 103 | 288 | 201
2400 h, 0.00005 mg/kg | 93 | – | – | –
2400 h, 0.0001 mg/kg | 156 | 112 | – | –

Settings | concentration in adipose [pg/g] | concentration in liver [pg/g]
[2] | – | 1310
[4] | – | 1200
[5] | – | 1300
[6] | – | 1450
[7] | – | 515
[9] | 220 | –
[10] | 279 | –
[11] | 95 | –
[12] | 186 | –
[13] | 260 | –
[14] | 397 | –
[15] | 116 | –
[17] | 159 | –
[18] | 372 | –
[19] | 422 | –
[20] | 152 | –
[21] | 294 | –
[22] | 497 | –
[23] | 294 | –
[24] | 537 | –
[25] | 374 | –
[26] | 292 | –
[27] | 305 | –
[28] | 483 | –
[29] | 384 | –
[30] | 212 | –
[31] | 236 | –
[33] | 143 | –
[34] | 402 | –
[35] | 271 | –
[36] | 218 | –
[37] | 264 | –
[38] | 298 | –
[39] | 148 | –
[40] | 213 | –
[41] | 260 | –
[42] | 379 | –
[43] | 490 | –
[44] | 106 | –
[45] | 407 | –
[46] | 469 | –

[8]
Settings | concentration in plasma [pg/mL]
1.5 h | 104
48 h | 631
144 h | 106
240 h | 161
360 h | 184
